Data set [1] in a line: In vitro etoricoxib release from PEU films, USP Apparatus 7, PBS. Particulars: about 6 mg in USP 7, PBS, n=3. Type of data set: physicochemical.
The conditions of data set [2]: 90 mg etoricoxib dosed patients in comparison to diclofenac at 150 mg; oral; cited from earlier work.
Data set [3] can be described thus: Etoricoxib solubility in the release media. Type of data set: physicochemical. The note with it: used in Higuchi equation. Here is the method: D=(slope/A)^2/2CCs • Where the slope is the amount of drug released at time t divided by the square root of time, A is the area of the film, C is the initial drug concentration (or the drug-load in the polymer), CS is the drug solubility in the media (0.5 mg/mL) and D is the diffusivity constant. This constant not only indicates the mobility of the drug from the film into the media, but also can be used to calculate for the time of total release using the maximum amount of drug within the film (Table 11).

As for `Cc1ccc(-c2ncc(Cl)cc2-c2ccc(S(C)(=O)=O)cc2)cn1` [etoricoxib], the “time at which free drug release reached a plateau” value in data set [1] was about 1 days. Besides, in data set [2], the gastrointestinal events result is listed as “decrease in gastrointestinal events”; the “risk of edema and hypertension” value is reported as “dose-dependent increased risk”. Further, the “drug solubility in the media (CS)” value in data set [3] is 500 µg/mL.

The values above are taken from US20250090475A1, “DRUG-LOADED AMINO ACID BASED POLY (ESTERUREA)FILMS FOR CONTROLLED LOCAL RELEASE OF NON-OPIOID ANALGESIC COMPOUNDS” (MERK SHARP & DOHME CORP., priority 2020, published 2025).
